Test results: US20050112551A1, “Dual assay for evaluating activity and cytotoxicity of compounds in the same population of cells” (AGOURON PHARMACEUTICALS, INC., priority 2003, published 2005)
Where two headings read alike, the source gives them in different places.

Assays:
[1] = system: HIV-1 RF infection of CEM-SS cells; experiment: HIV-1 RF cell protection assay (XTT dye reduction), antiviral activity; assay type: cell-based; conditions: for HIV-1 RF Cell Protection Assay TI (therapeutic index, CC50/EC50): CC50 divided by EC50, cell protection assay; for EC50: read-out: HIV-1 RF Cell Protection Assay EC50
[2] = HIV-1 RF cell protection assay (XTT dye reduction), cytotoxicity in uninfected cells; assay type: cell-based; conditions: human
Description: (§1) The antiviral activities of compounds were also evaluated in cell protection assays by the XTT dye reduction method. CEM-SS subject cells were infected with HIV-1 RF virus at an moi of 0.025 to 0.819 or mock infected with medium only and added at 2×10^4 cells per well into 96-well plates containing half-log dilutions of test compounds. Six days later, 50 μl of XTT (1 mg/ml XTT tetrazolium, […] phenazine methosulfate) was added to the wells and the plate was reincubated for four hours. Viability, as determined by the amount of XTT formazan produced, was quantified spectrophotometrically by absorbance at 450 nm.
(§2) Data from cell protection assays were expressed as the percent of formazan produced in compound-treated cells compared to formazan produced in wells of uninfected, compound-free cells.

[3] = system: VSV/HIVLuc infection of HeLa HRLuc cells
[4] = in vitro; conditions: human
[5] = system: VSV/HIVLuc infection of HeLa HRLuc cells; experiment: microbe, parasite or virus in culture; conditions: Vesicular stomatitis virus, 72 h, read-out: Dual Reporter Assay EC50
[6] = system: CEM-SS cells; experiment: HIV-1 RF cell protection assay (XTT dye reduction), cytotoxicity in uninfected cells; assay type: cell-based; conditions: XTT dye reduction, uninfected CEM-SS cells, six days; mean of 2 to 3 experiments
Description: as §1, §2

[7] = system: HeLa HRLuc cells; conditions: read-out: Dual Reporter Assay CC50; Renilla luciferase reporter in infected HeLa HRLuc cells, ~72 hours; mean of 2 to 3 experiments
[8] = Human immunodeficiency virus 1, 144 h, XTT dye reduction six days after infection of CEM-SS cells with HIV-1 RF, mean of 2 to 3 experiments
[9] = uninfected (mock-infected) CEM-SS cells, XTT dye reduction, uninfected CEM-SS cells, six days, mean of 2 to 3 experiments, read-out: HIV-1 RF Cell Protection Assay CC50
[10] = XTT dye reduction, uninfected CEM-SS cells, six days, mean of 2 to 3 experiments, read-out: HIV-1 RF Cell Protection Assay CC50

SMILES	HIV-1 RF Cell Protection Assay TI (therapeutic index, CC50/EC50) [1]	EC50 [1, 8] [µM]	CC50 at 6 days [2, 9] [µM]	Dual Reporter Assay TI (therapeutic index, CC50/EC50) [3]	CC50 [4] [µM]	EC50 [5] [µM]	CC50 at 6 days [2, 10] [µM]	CC50 at 6 days [2] [µM]	EC50 ([1]; XTT dye reduction six days after infection of CEM-SS cells with HIV-1 RF, mean of 2 to 3 experiments) [µM]	CC50 [6] [µM]	EC50 ([3]; read-out: Dual Reporter Assay EC50) [µM]	CC50 [7] [µM]	EC50 ([1]; Human immunodeficiency virus 1, CEM-SS, 144 h) [µM]
Cc1cn([C@H]2C[C@H](N=[N+]=[N-])[C@@H](CO)O2)c(=O)[nH]c1=O [AZT, 3′-Azido-3′-deoxythymidine]	>40,000	0.008	> 320	>11,034	> 320	0.029	–	–	–	–	–	–	–
CC(C)c1nc(COC(N)=O)n(Cc2ccncc2)c1Sc1cc(Cl)cc(Cl)c1 [CPV, Capravirine]	47,214	0.0014	–	24,266	36.4	0.0015	66.1	–	–	–	–	–	–
Nc1ccn([C@@H]2CS[C@H](CO)O2)c(=O)n1 [Compound 3TC, lamivudine]	>15,384	0.065	–	>229	> 32	0.14	–	> 1000	–	–	–	–	–
O=C(O)C(=O)CC(=O)c1cccn1Cc1ccc(F)cc1 [Compound L-731988]	55.6	–	–	92.2	–	–	–	–	4.5	250	1.8	166	–
CC(C)Nc1cccnc1N1CCN(C(=O)c2cc3cc(NS(C)(=O)=O)ccc3[nH]2)CC1 [DLV, delavirdine]	6,961	0.013	–	>5000	> 100	0.02	90.5	–	–	–	–	–	–
O=C1Nc2ccc(Cl)cc2[C@@](C#CC2CC2)(C(F)(F)F)O1 [EFV, efavirenz]	38,266	0.0015	–	179,250	71.7	0.0004	57.4	–	–	–	–	–	–
Cc1ccnc2c1NC(=O)c1cccnc1N2C1CC1 [NVP, Nevirapine]	>30,303	0.033	–	>1032	> 32	0.031	> 1000	–	–	–	–	–	–
Cc1cn([C@H]2C=C[C@@H](CO)O2)c(=O)[nH]c1=O [d4T, stavudine]	>64	0.51	–	>119	> 32	0.27	> 32	–	–	–	–	–	–
O=c1[nH]cnc2c1ncn2[C@H]1CC[C@@H](CO)O1 [ddl, didanosine]	–	–	> 32	–	> 32	0.59	–	–	–	–	–	–	12.9
